Test results published in patent US8802661B2, “C-28 amides of modified C-3 betulinic acid derivatives as HIV maturation inhibitors” (priority 2010, dated 2014).
Where two headings read alike, the source gives them in different places.

Test system: recombinant NL4-3 virus (Renilla luciferase in nef, Gag P373S)
Experiment: HIV Cell Culture Assay (luciferase reporter virus in MT-2 cells)
Format: cell-based
Description: MT-2 cells and 293T cells were obtained from the NIH AIDS Research and Reference Reagent Program. MT-2 cells were propagated in RPMI 1640 media supplemented with 10% heat inactivated fetal bovine serum, […]. The 293T cells were propagated in DMEM media supplemented with 10% heat inactivated fetal bovine serum (FBS), 100 units/ml penicillin G and 100 μg/ml streptomycin. The proviral DNA clone of NL4-3 was obtained from the NIH AIDS Research and Reference Reagent Program. A recombinant NL4-3 virus, in which a section of the nef gene from NL4-3 was replaced with the Renilla luciferase gene, was used as a reference virus. In addition, residue Gag P373 was converted to P373S. Briefly, the recombinant virus was prepared by transfection of the altered proviral clone of NL4-3. Transfections were performed in 293T cells using LipofectAMINE PLUS from Invitrogen (Carlsbad, Calif.), according to manufacturer's instruction. The virus was titered in MT-2 cells using luciferase enzyme activity as a marker. Luciferase was quantitated using the Dual Luciferase kit from Promega (Madison, Wis.), with modifications to the manufacturer's protocol. The diluted Passive Lysis solution was pre-mixed with the re-suspended Luciferase Assay Reagent and the re-suspended Stop & Glo Substrate (2:1:1 ratio). Fifty (50) μL of the mixture was added to each aspirated well on assay plates and luciferase activity was measured immediately on a Wallac TriLux (Perkin-Elmer). Antiviral activities of inhibitors toward the recombinant virus were quantified by measuring luciferase activity in cells infected for 4-5 days with NLRluc recombinants in the presence serial dilutions of the inhibitor. Table 1 is the key for the data in Table 2.

| Structure (SMILES) | EC50 (NL43, read-out: EC50 Group) [nM] | EC50 (NL43) [nM] |
| --- | --- | --- |
| C=C(C)[C@@H]1CC[C@]2(C(=O)NCCN(C)CCOC(=O)CCC(=O)O)CC[C@]3(C)[C@H](CC[C@@H]4[C@@]5(C)CC=C(c6ccc(C(=O)O)cc6)C(C)(C)[C@@H]5CC[C@]43C)[C@@H]12 [Example 115, 4-((1R,3aS,5aR,5bR,7aR,11aS,11bR,13aR,13bR)-3a-(2-((2-(3-carboxypropanoyloxy)ethyl)(methyl)amino)ethylcarbamoyl)-5a,5b,8,8,11a-pentamethyl-1-(prop-1-en-2-yl)-2,3,3a,4,5,5a,5b,6,7,7a,8,11,11a,11b,12,13,13a,13b-octadecahydro-1H-cyclopenta[a]chrysen-9-yl)benzoic acid] | < 100 |  |
| C=C(C)[C@@H]1CC[C@]2(C(=O)NCCN(CC)CCC(=O)O)CC[C@]3(C)[C@H](CC[C@@H]4[C@@]5(C)CC=C(c6ccc(C(=O)O)cc6)C(C)(C)[C@@H]5CC[C@]43C)[C@@H]12 [Example 89, 4-((1R,3aS,5aR,5bR,7aR,11aS,11bR,13aR,13bR)-3a-(2-((2-carboxyethyl)(ethyl)amino)ethylcarbamoyl)-5a,5b,8,8,11a-pentamethyl-1-(prop-1-en-2-yl)-2,3,3a,4,5,5a,5b,6,7,7a,8,11,11a,11b,12,13,13a,13b-octadecahydro-1H-cyclopenta[a]chrysen-9-yl)benzoic acid] | < 100 |  |
| C=C(C)[C@@H]1CC[C@]2(C(=O)Nc3ncc(C(=O)O)s3)CC[C@]3(C)[C@H](CC[C@@H]4[C@@]5(C)CC=C(c6ccc(C(=O)O)cc6)C(C)(C)[C@@H]5CC[C@]43C)[C@@H]12 [Example 50, 2-((1R,3aS,5aR,5bR,7aR,11aS,11bR,13aR,13bR)-9-(4-carboxyphenyl)-5a,5b,8,8,11a-pentamethyl-1-(prop-1-en-2-yl)-2,3,3a,4,5,5a,5b,6,7,7a,8,11,11a,11b,12,13,13a,13b-octadecahydro-1H-cyclopenta[a]chrysene-3a-carboxamido)thiazole-5-carboxylic acid] | < 100 |  |
| C=C(C)[C@@H]1CC[C@]2(C(=O)NCC(c3cccnc3)N(C)C)CC[C@]3(C)[C@H](CC[C@@H]4[C@@]5(C)CC=C(c6ccc(C(=O)O)cc6)C(C)(C)[C@@H]5CC[C@]43C)[C@@H]12 (stereo partly drawn) [Example 35, 4-((1R,3aS,5aR,5bR,7aR,11aS,11bR,13aR,13bR)-3a-(2-(dimethylamino)-2-(pyridin-3-yl)ethylcarbamoyl)-5a,5b,8,8,11a-pentamethyl-1-(prop-1-en-2-yl)-2,3,3a,4,5,5a,5b,6,7,7a,8,11,11a,11b,12,13,13a,13b-octadecahydro-1H-cyclopenta[a]chrysen-9-yl)benzoic acid] | < 100 |  |
| C=C(C)[C@@H]1CC[C@]2(C(=O)NCc3ccoc3)CC[C@]3(C)[C@H](CC[C@@H]4[C@@]5(C)CC=C(c6ccc(C(=O)O)cc6)C(C)(C)[C@@H]5CC[C@]43C)[C@@H]12 [Example 126, 4-((1R,3aS,5aR,5bR,7aR,11aS,11bR,13aR,13bR)-3a-(furan-3-ylmethylcarbamoyl)-5a,5b,8,8,11a-pentamethyl-1-(prop-1-en-2-yl)-2,3,3a,4,5,5a,5b,6,7,7a,8,11,11a,11b,12,13,13a,13b-octadecahydro-1H-cyclopenta[a]chrysen-9-yl)benzoic acid] | < 100 |  |
| C=C(C)[C@@H]1CC[C@]2(C(=O)NC3(c4ccccn4)CC3)CC[C@]3(C)[C@H](CC[C@@H]4[C@@]5(C)CC=C(c6ccc(C(=O)O)cc6)C(C)(C)[C@@H]5CC[C@]43C)[C@@H]12 [Example 5, 4-((1R,3aS,5aR,5bR,7aR,11aS,11bR,13aR,13bR)-5a,5b,8,8,11a-pentamethyl-1-(prop-1-en-2-yl)-3a-(1-(pyridin-2-yl)cyclopropylcarbamoyl)-2,3,3a,4,5,5a,5b,6,7,7a,8,11,11a,11b,12,13,13a,13b-octadecahydro-1H-cyclopenta[a]chrysen-9-yl)benzoic acid] | < 100 |  |
| C=C(C)[C@@H]1CC[C@]2(C(=O)NCCN(CCC)CC(=O)O)CC[C@]3(C)[C@H](CC[C@@H]4[C@@]5(C)CC=C(c6ccc(C(=O)O)cc6)C(C)(C)[C@@H]5CC[C@]43C)[C@@H]12 [Example 94, 4-((1R,3aS,5aR,5bR,7aR,11aS,11bR,13aR,13bR)-3a-(2-((carboxymethyl)(propyl)amino)ethylcarbamoyl)-5a,5b,8,8,11a-pentamethyl-1-(prop-1-en-2-yl)-2,3,3a,4,5,5a,5b,6,7,7a,8,11,11a,11b,12,13,13a,13b-octadecahydro-1H-cyclopenta[a]chrysen-9-yl)benzoic acid] | < 100 |  |
| C=C(C)[C@@H]1CC[C@]2(C(=O)NCCNC(C)=O)CC[C@]3(C)[C@H](CC[C@@H]4[C@@]5(C)CC=C(c6ccc(C(=O)O)cc6)C(C)(C)[C@@H]5CC[C@]43C)[C@@H]12 [Example 30, 4-((1R,3aS,5aR,5bR,7aR,11aS,11bR,13aR,13bR)-3a-(2-acetamidoethylcarbamoyl)-5a,5b,8,8,11a-pentamethyl-1-(prop-1-en-2-yl)-2,3,3a,4,5,5a,5b,6,7,7a,8,11,11a,11b,12,13,13a,13b-octadecahydro-1H-cyclopenta[a]chrysen-9-yl)benzoic acid] | < 100 |  |
| CC(C)[C@@H]1CC[C@]2(C(=O)NCCN(C)C)CC[C@]3(C)[C@H](CC[C@@H]4[C@@]5(C)CC[C@H](c6ccc(C(=O)O)cc6)C(C)(C)[C@@H]5CC[C@]43C)[C@@H]12 [Example 55, 4-((1S,3aS,5aR,5bR,7aS,9S,11aS,11bR,13aR,13bR)-3a-(2-(dimethylamino)ethylcarbamoyl)-1-isopropyl-5a,5b,8,8,11a-pentamethylicosahydro-1H-cyclopenta[a]chrysen-9-yl)benzoic acid] | < 100 |  |
| C=C(C)[C@@H]1CC[C@]2(C(=O)NCCC(=O)O)CC[C@]3(C)[C@H](CC[C@@H]4[C@@]5(C)CC=C(c6ccc(C(=O)O)cc6)C(C)(C)[C@@H]5CC[C@]43C)[C@@H]12 [Example 25, 4-((1R,3aS,5aR,5bR,7aR,11aS,11bR,13aR,13bR)-3a-(2-carboxyethylcarbamoyl)-5a,5b,8,8,11a-pentamethyl-1-(prop-1-en-2-yl)-2,3,3a,4,5,5a,5b,6,7,7a,8,11,11a,11b,12,13,13a,13b-octadecahydro-1H-cyclopenta[a]chrysen-9-yl)benzoic acid] | < 100 |  |
| C=C(C)[C@@H]1CC[C@]2(C(=O)N3CCCCC3)CC[C@]3(C)[C@H](CC[C@@H]4[C@@]5(C)CC=C(c6ccc(C(=O)O)cc6)C(C)(C)[C@@H]5CC[C@]43C)[C@@H]12 [Example 19, 4-((1R,3aS,5aR,5bR,7aR,11aS,11bR,13aR,13bR)-5a,5b,8,8,11a-pentamethyl-3a-(piperidine-1-carbonyl)-1-(prop-1-en-2-yl)-2,3,3a,4,5,5a,5b,6,7,7a,8,11,11a,11b,12,13,13a,13b-octadecahydro-1H-cyclopenta[a]chrysen-9-yl)benzoic acid] |  | 370 |
| C=C(C)[C@@H]1CC[C@]2(C(=O)NCCN3CCC(F)(F)CC3)CC[C@]3(C)[C@H](CC[C@@H]4[C@@]5(C)CC=C(c6ccc(C(=O)O)c(F)c6)C(C)(C)[C@@H]5CC[C@]43C)[C@@H]12 [Example 117, 4-((1R,3aS,5aR,5bR,7aR,11aS,11bR,13aR,13bR)-3a-(2-(4,4-difluoropiperidin-1-yl)ethylcarbamoyl)-5a,5b,8,8,11a-pentamethyl-1-(prop-1-en-2-yl)-2,3,3a,4,5,5a,5b,6,7,7a,8,11,11a,11b,12,13,13a,13b-octadecahydro-1H-cyclopenta[a]chrysen-9-yl)-2-fluorobenzoic acid] | < 100 |  |
| C=C(C)[C@@H]1CC[C@]2(C(=O)NCc3ccc(Cl)cc3)CC[C@]3(C)[C@H](CC[C@@H]4[C@@]5(C)CC=C(c6ccc(C(=O)O)cc6)C(C)(C)[C@@H]5CC[C@]43C)[C@@H]12 [Example 60, 4-((1R,3aS,5aR,5bR,7aR,11aS,11bR,13aR,13bR)-3a-(4-chlorobenzylcarbamoyl)-5a,5b,8,8,11a-pentamethyl-1-(prop-1-en-2-yl)-2,3,3a,4,5,5a,5b,6,7,7a,8,11,11a,11b,12,13,13a,13b-octadecahydro-1H-cyclopenta[a]chrysen-9-yl)benzoic acid] |  | 48 |
| C=CNC(=O)[C@]12CC[C@@H](C(=C)C)[C@@H]1[C@H]1CC[C@@H]3[C@@]4(C)CC=C(c5ccc(C(=O)O)cc5)C(C)(C)[C@@H]4CC[C@@]3(C)[C@]1(C)CC2 [Example 84, 4-((1R,3aS,5aR,5bR,7aR,11aS,11bR,13aR,13bR)-5a,5b,8,8,11a-pentamethyl-1-(prop-1-en-2-yl)-3a-(vinylcarbamoyl)-2,3,3a,4,5,5a,5b,6,7,7a,8,11,11a,11b,12,13,13a,13b-octadecahydro-1H-cyclopenta[a]chrysen-9-yl)benzoic acid] | < 100 |  |
